Columns and labels:
DKK-1 = assay: Western blotting of DKK-1 with hair loss causing hormone DHT; format: cell-based, human; conditions: HFDPC, 48 hours
Experimental: The cells were treated with DHT and the peptides for 48 hours, and then subjected to western blotting with respect to DKK-1 using specific antibodies, thereby observing the expression of DKK-1.
The human hair follicle dermal papilla cells were seeded on a 6-well plate at a density of 1×10^5 cells/well. The cells were stabilized by incubation overnight, and then treated with 5 μg/ml DHT (Sigma Aldrich) together with the peptides at different concentrations (1 μg/ml and 10 μg/ml) for 48 hours. The cells were treated with the cell lysis buffer to obtain a lysate, followed by protein quantification, and then western blotting was performed with respect to DKK-1 using anti-DKK-1 antibody (Santa Cruz Biotechnology, USA).

BMPR-IB = target: T1, BMPR-IB (Homo sapiens, UniProt O00238); assay: Receptor binding assay (BMPR), ELISA; conditions: peptide coated 50 μg/25 μl, O.D. 450 nm, positive control BMP4
T1 construct: purchased R&D Systems
Experimental: (§1) In an ELISA plate, 50 μg/25 μl peptide and 25 μl of a coating buffer (20 mM sodium phosphate pH 9.6) were added and mixed, and then incubated at 4° C. overnight. After washing three times with PBST (300 μl), the blocking with 200 μl of a blocking buffer (3% BSA) was carried out at room temperature for 2 hours. After washing three times with PBST (300 μl), BMPR-IB (R&D Systems) was added at 0.5 μg/1 ml per well, followed by incubation at room temperature for 2 hours. After washing three times with PBST (300 μl), anti-human IgG-HRP was diluted at 1:1,000, which was then added at 100 μl per well, followed by incubation at room temperature for 2 hours. After washing three times with PBST (300 μl), 100 μl of TMB solution was added, followed by color development. 50 μl of a stop solution (3 N H2SO4) was added to stop the reaction, and then the absorbance was determined at O.D. 450 nm.

TNFR = assay: Receptor binding assay (TNFR), ELISA; conditions: peptide coated 50 μg/25 μl, O.D. 450 nm, positive control TNF-α
IL-8 = IL-8 ELISA in THP-1 cells treated with TNF-α; format: cell-based, human; conditions: 10 μg/ml pre-treatment 30 minutes, 50 ng/ml TNF-α, 24 hours
Experimental: (§2) The human monocytes, THP-1 cells were seeded on a 24-well plate at a density of 2×10^6 cells/well. After incubation overnight, the cells were pre-treated with the samples at 10 μg/ml for 30 minutes, and treated with 50 ng/ml TNF-α, followed by incubation for 24 hours. The cell incubation medium was obtained, followed by centrifugation at 13,000 rpm for 10 minutes at 4° C., and then the supernatant was separated. ELISA was carried out using IL-1b and IL-8 ELISA kit (R&D system).

IL-1β = IL-1β ELISA in THP-1 cells treated with TNF-α; format: cell-based, human; conditions: 10 μg/ml pre-treatment 30 minutes, 50 ng/ml TNF-α, 24 hours
Experimental: as §2

Phospho-smad1/5/8 = assay: Western blotting using osteoblasts (Smad1/5/8 phosphorylation); format: cell-based; conditions: mouse osteoblast line, 50 μg/ml, 15 minutes and 30 minutes
Experimental: The cells incubated overnight were incubated in a serum-free medium for 24 hours, and then treated with the peptide at 50 μg/ml for 15 minutes and 30 minutes (positive control; BMP4 50 ng/ml). The cells were treated with the cell lysis buffer to obtain a lysate, followed by protein quantification, and then western blotting was performed with respect to Phospho-smad1/5/8 (P-smad1/5/8) using anti-p-smad1/5/8 antibody (Santa Cruz Biotechnology, USA).

[1] = tested on: human hair follicle germinal matrix cells (HFGMC); assay: Cell proliferation assay (SRB), HFGMC; format: cell-based; conditions: 1, 10 and 50 μg/ml, 72 hours
Experimental: (§3) In order to observe the cell proliferation effect on human hair follicle dermal papilla cells, human hair follicle germinal matrix cells, and human umbilical vein endothelial cells, which are main hair cells, each type of cells were seeded on a 96-well plate at a density of 3×10^3 cells/well, followed by incubation under conditions of 37° C. and 5% CO2 for 24 hours. After the medium was exchanged with the same culture medium completely excluding serum, the cells were treated with the peptides at different concentrations (1 μg/ml, 10 μg/ml, and 50 μg/ml), followed by incubation under the same conditions for 72 hours. After the incubation supernatant was removed, the cells were immobilized using ethanol, and washed three times with phosphate buffer saline (PBS). The wash solution was removed, and the cells were stained through the treatment with colorimetric SRB solution. After the cells were sufficiently washed with 1% acetic acid, the cells were observed using a microscope to observe the state of living cells. The absorbance was read at UV light of 560 nm, thereby measuring the survival conditions of cells

PI3K = assay: Western blotting of cell signaling material, PI3K; format: cell-based, human; conditions: HFDPC, 1 and 10 μg/ml, 30 minutes and 60 minutes
Experimental: (§4) In order to observe the changes in the phosphorylation of ERK and the expression of PI3K, which are main signaling materials involved in cell proliferation in the human hair follicle dermal papilla cells, the cells were treated with the peptides of the present invention for 30 minutes and 60 minutes, and then subjected to western blotting using specific antibodies, thereby observing the pERK and PI3K changes. The test was carried out using anti-pERK antibody (Santa Cruz Biotechnology, USA) and anti-pPI3K antibody (Santa Cruz Biotechnology, USA).
(§5) The cells were treated with the cell lysis buffer to obtain a lysate, followed by protein quantification, and then western blotting was performed with respect to Phospho-ERK (pERK), PI3K, and β-catenin.

Wnt3a = assay: Western blotting of hair growth protein Wnt3a; format: cell-based, human; conditions: HFDPC, 0.1-50 μg/ml, 24 hours
Experimental: (§6) In order to observe the changes in the expression of IGF1, KGF, and Wnt3a, which are proteins involved in the development of hair roots in the human hair follicle dermal papilla cells, the cells were treated with the peptides of the present invention for 24 hours, and then subjected to western blotting using specific antibodies, thereby observing the changes in hair growth-related proteins.
(§7) The cells were stabilized by the incubation overnight, and then treated with the peptides at different concentrations (0.1-50 μg/ml) for 24 hours. The cells were treated with the cell lysis buffer to obtain a lysate, followed by protein quantification, and then western blotting was performed with respect to IGF-1, KGF, and Wnt3a.
(§8) The test was carried out using anti-IGF-1 antibody (Santa Cruz Biotechnology, USA), anti-KGF antibody (Santa Cruz Biotechnology, USA), and anti-Wnt3a antibody (Santa Cruz Biotechnology, USA).

KGF = assay: Western blotting of hair growth protein KGF; format: cell-based, human; conditions: HFDPC, 0.1-50 μg/ml, 24 hours
Experimental: as §6, §7, §8

IGF-1 = assay: Western blotting of hair growth protein IGF-1; format: cell-based, human; conditions: HFDPC, 0.1-50 μg/ml, 24 hours
Experimental: as §6, §7, §8

Phospho-ERK (pERK) = assay: Western blotting of cell signaling material, ERK phosphorylation; format: cell-based, human; conditions: HFDPC, 1 and 10 μg/ml, 30 minutes and 60 minutes
Experimental: as §4, §5

[2] = tested on: human umbilical vein endothelial cells (HUVEC); assay: Cell proliferation assay (SRB), HUVEC; format: cell-based; conditions: 1, 10 and 50 μg/ml, 72 hours
Experimental: as §3

Phospho-PI3K = assay: Western blotting using osteoblasts (PI3K phosphorylation); format: cell-based; conditions: mouse osteoblast line, 50 μg/ml, 15 minutes
Experimental: The cells were treated with the peptides at 50 μg/ml for 15 minutes (positive control: HGF 50 ng/ml). The cells were treated with the cell lysis buffer to obtain a lysate, followed by protein quantification, and then western blotting was performed with respect to Phospho-PI3K (P-PI3K) using anti-pPI3K antibody (Santa Cruz Biotechnology, USA).

Ha3-II and keratin 14 = assay: RT-PCR of keratinocyte differentiation markers in HaCaT cells; format: cell-based, human; conditions: HaCaT, 0.1, 1 and 10 μg/ml, 24 hours
Experimental: The cells were treated with the peptides at different concentrations (0.1 μg/ml, 1 μg/ml, and 10 μg/ml), and then incubated in an incubator at 37° C. for 24 hours. […] RT-PCR was carried out using primers of respective markers (Ha3-II and keratin 14) and PCR pre-mix (Intron) to measure the changes in the expression of the markers.
Target-specific primer sequences used in PCR for keratinocyte differentiation markers were as follows: Ha3-II forward primer sequence, 5′-[…]-3′ and Ha3-II reverse primer, 5′-[…]-3′ (annealing temperature, 60° C.); Keratin14 forward primer sequence, 5′-[…]-3′ and Keratin14 reverse primer, 5′-[…]-3′ (annealing temperature, 60° C.)

β-catenin = assay: Western blotting of cell signaling material, β-catenin; format: cell-based, human; conditions: HFDPC, 1 and 10 μg/ml, 30 minutes and 60 minutes
Experimental: as §4, §5

[3] = tested on: human hair follicle dermal papilla cells (HFDPC); assay: Cell proliferation assay (SRB), HFDPC; format: cell-based; conditions: 1, 10 and 50 μg/ml, 72 hours
Experimental: as §3

HGFR = target: T2, HGFR (Homo sapiens, UniProt P08581); assay: Receptor binding assay (HGFR), ELISA; conditions: peptide coated 50 μg/25 μl, O.D. 450 nm
T2 construct: purchased R&D Systems
Experimental: as §1, with “On” for “In”, “HGFR” for “BMPR-IB”, “read” for “determined”

T2 sequence (P08581 25-1390): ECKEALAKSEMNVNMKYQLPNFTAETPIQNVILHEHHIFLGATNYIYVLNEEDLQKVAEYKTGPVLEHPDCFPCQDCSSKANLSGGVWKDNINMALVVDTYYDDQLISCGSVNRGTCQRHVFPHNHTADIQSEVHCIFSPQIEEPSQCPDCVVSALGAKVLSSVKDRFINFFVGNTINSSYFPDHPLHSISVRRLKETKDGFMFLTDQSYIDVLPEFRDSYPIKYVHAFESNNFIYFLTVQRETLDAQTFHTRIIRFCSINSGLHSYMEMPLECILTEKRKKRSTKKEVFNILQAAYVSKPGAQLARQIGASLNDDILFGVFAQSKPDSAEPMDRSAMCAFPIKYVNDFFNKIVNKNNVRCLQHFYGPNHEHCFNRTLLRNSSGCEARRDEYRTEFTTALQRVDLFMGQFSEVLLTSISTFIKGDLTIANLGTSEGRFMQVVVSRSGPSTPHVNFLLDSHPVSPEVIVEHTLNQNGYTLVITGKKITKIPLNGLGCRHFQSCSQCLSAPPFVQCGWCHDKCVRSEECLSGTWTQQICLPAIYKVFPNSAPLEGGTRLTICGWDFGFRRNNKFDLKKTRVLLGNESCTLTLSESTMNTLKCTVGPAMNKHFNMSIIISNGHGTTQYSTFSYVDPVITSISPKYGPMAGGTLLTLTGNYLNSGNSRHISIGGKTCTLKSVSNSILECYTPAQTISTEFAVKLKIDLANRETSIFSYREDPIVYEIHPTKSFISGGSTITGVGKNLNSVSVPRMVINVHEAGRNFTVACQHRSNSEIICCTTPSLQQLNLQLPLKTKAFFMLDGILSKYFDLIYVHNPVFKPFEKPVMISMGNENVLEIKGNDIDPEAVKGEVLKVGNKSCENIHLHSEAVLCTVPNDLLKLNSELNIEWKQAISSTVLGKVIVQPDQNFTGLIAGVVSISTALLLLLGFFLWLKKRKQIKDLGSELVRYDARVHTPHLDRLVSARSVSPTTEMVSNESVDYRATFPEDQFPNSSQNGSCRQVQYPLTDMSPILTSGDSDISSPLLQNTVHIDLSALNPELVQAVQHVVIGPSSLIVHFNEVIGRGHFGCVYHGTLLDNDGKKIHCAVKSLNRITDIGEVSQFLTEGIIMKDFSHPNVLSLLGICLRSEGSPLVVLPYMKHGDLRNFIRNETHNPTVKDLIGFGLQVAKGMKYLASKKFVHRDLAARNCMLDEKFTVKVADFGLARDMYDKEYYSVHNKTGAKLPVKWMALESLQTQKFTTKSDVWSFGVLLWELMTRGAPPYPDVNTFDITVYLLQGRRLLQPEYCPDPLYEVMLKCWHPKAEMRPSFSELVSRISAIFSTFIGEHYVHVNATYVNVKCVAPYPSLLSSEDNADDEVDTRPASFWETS
T1 sequence (O00238 14-502): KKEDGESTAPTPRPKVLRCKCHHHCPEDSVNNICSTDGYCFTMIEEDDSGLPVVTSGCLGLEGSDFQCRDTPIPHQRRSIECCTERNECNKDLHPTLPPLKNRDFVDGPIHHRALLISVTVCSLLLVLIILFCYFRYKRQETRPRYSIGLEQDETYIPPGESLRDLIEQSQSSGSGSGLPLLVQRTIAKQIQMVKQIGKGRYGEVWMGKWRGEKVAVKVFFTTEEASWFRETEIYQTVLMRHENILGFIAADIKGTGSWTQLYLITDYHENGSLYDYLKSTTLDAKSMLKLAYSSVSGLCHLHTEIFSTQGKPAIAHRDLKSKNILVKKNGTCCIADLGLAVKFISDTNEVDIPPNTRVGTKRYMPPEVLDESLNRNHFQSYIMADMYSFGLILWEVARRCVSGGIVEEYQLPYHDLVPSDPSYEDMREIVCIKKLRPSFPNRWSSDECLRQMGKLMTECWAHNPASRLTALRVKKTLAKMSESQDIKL

Molecule | expression of DKK-1 (DKK-1; treatment with DHT 5 μg/ml alone) | binding affinity on BMPR (BMPR-IB) | binding affinity to TNFR (TNFR) | expression of IL-8 increased by TNF-α treatment (IL-8) | expression of IL-1β increased by TNF-α treatment (IL-1β) | phosphorylation of Smad1/5/8 by BMPR signal stimulation (Phospho-smad1/5/8) | cell proliferation, HFGMC [1] | level of PI3K (PI3K) | expression of Wnt3a (Wnt3a) | expression of KGF (KGF) | expression of DKK-1 increased by DHT (DKK-1; 5 μg/ml DHT together with peptide 1 and 10 μg/ml) | expression of IGF-1 (IGF-1) | phosphorylation of ERK (Phospho-ERK (pERK)) | cell proliferation, HUVEC [2] | phosphorylation of PI3K by HGFR signal stimulation (Phospho-PI3K) | mRNA expression levels of differentiation markers Ha3-II and keratin 14 (Ha3-II and keratin 14) | expression of β-catenin (β-catenin) | cell proliferation, HFDPC [3] | binding affinity on HGFR (HGFR)
C[C@]12CCC(=O)C[C@@H]1CC[C@@H]1[C@@H]2CC[C@]2(C)[C@@H](O)CC[C@@H]12 [DHT, dihydrotestosterone, reference compound] | increased | – | – | – | – | – | – | – | – | – | – | – | – | – | – | – | – | – | –
NH2-Ala-Cys-Phe-Thr-Arg-Thr-Ser-His-Ala-Cys-COOH (H-ACFTRTSHAC-OH; cysteine pairing not given here) [SEQ ID NO: 2] | – | high binding affinity | high binding affinity | inhibited | inhibited | increased | – | – | – | – | – | – | – | – | – | – | – | – | –
NH2-Ala-Cys-Asp-Gly-Arg-Thr-Gln-Ala-Leu-Cys-COOH (H-ACDGRTQALC-OH; cysteine pairing not given here) [SEQ ID NO: 3] | – | – | high binding affinity | inhibited | inhibited | – | increased in a concentration-dependent manner | increased | increased | increased | reduced | increased | increased | increased in a concentration-dependent manner | increased | keratinocyte differentiation promoting effect | increased | increased in a concentration-dependent manner | high binding affinity
